Among the test systems are HOP-92; ACHN; SF-295; RPMI-8226; UACC-257; Malme-3M; SN12C; SR; NCI/ADR-RES; LOX IMVI; K562; SK-OV-3; SW-620; CAKI-1; MDA-MB-231; Hs-578T; RXF 393; U-251; SK-MEL-2; HL-60.
Common to all, as to assay: growth of human tumour cells (NCI), 48 h

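Dose response: 5 concentrations. Exposure: 48 h. Format: 96-well plates. Endpoint: linear interpolation; highest concentration if not reached. GI50: concentration for 50% inhibition of growth.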 Activity calls are given as the source filed them. No stated cut-off is given here; in the data, active = GI50 up to about 1.1 µM and inactive = higher.

`Oc1c2c(nc3cc4c(cc13)OCO4)-c1ccccc1CCC2`: the GI50 with HOP-92 was > 50 µM (inactive); with ACHN it was > 50 µM (inactive); in the assay with SF-295, 17.1 µM (inactive); in the assay with RPMI-8226, > 50 µM (inactive); with UACC-257, > 50 µM (inactive); in the assay with Malme-3M it was > 50 µM (inactive). In addition, the GI50 in the assay on SN12C was > 50 µM (inactive); in the assay on SR it was 12.3 µM (inactive); in the assay with NCI/ADR-RES, > 50 µM (inactive); with LOX IMVI it was 43.3 µM (inactive); in the assay with K562 it was > 50 µM (inactive); in the assay on SK-OV-3, > 50 µM (inactive). Moreover, the GI50 in the assay on SW-620 was > 50 µM (inactive); in the assay on CAKI-1 it was > 50 µM (inactive); with MDA-MB-231 it was > 50 µM (inactive); with Hs-578T, 15.9 µM (inactive); in the assay on RXF 393, > 50 µM (inactive); in the assay with U-251, > 50 µM (inactive).
As for `CC(=O)OCC1OC(N2C(=O)NC(=O)C3C=C4CCCCC4=CC32)CC1OC(C)=O` (stereo not drawn), the GI50 in the assay with HOP-92, in the assay with ACHN, in the assay on SF-295, with RPMI-8226, in the assay with UACC-257 and in the assay with Malme-3M was > 100 µM (inactive) throughout. In addition, the GI50 in the assay with SK-MEL-2, in the assay with SN12C, in the assay with SR, in the assay with NCI/ADR-RES, in the assay on LOX IMVI and in the assay on K562 was > 100 µM (inactive) throughout. Further, the GI50 in the assay with SK-OV-3 is > 100 µM (inactive); with SW-620 it was > 100 µM (inactive); in the assay on MDA-MB-231 it was > 100 µM (inactive); in the assay with Hs-578T it was > 100 µM (inactive); in the assay with U-251 it was > 100 µM (inactive); with HL-60, 72.8 µM (inactive).
For `N#CC(c1ccccc1)c1cccc2ccccc12` (stereo not drawn), the GI50 in the assay with ACHN was 44.8 µM (inactive); in the assay on SF-295, 46.7 µM (inactive); in the assay on RPMI-8226, 25.7 µM (inactive); with UACC-257 it was 24.4 µM (inactive); in the assay on Malme-3M, 21.5 µM (inactive); in the assay on SK-MEL-2, 25.6 µM (inactive). Also, the GI50 in the assay with SN12C was 68.4 µM (inactive); in the assay on SR, 12.3 µM (inactive); in the assay on NCI/ADR-RES it was 39.8 µM (inactive); in the assay with LOX IMVI, 21.3 µM (inactive); in the assay with K562 it was 26 µM (inactive); with SW-620, 38.4 µM (inactive). Further, the GI50 in the assay on CAKI-1 is 17.4 µM (inactive); in the assay with MDA-MB-231, 48.6 µM (inactive); with Hs-578T, 36.7 µM (inactive); with U-251, 48.9 µM (inactive); with HL-60 it was 21.1 µM (inactive).
Take `O=c1[nH]c(=O)n(C2CC(O)C(CO)O2)cc1/N=N/NCc1ccccc1` (stereo not drawn): the GI50 in the assay with ACHN is > 100 µM (inactive); in the assay on SF-295, 59 µM (inactive); with UACC-257 it was > 100 µM (inactive); with Malme-3M, > 100 µM (inactive); in the assay on SN12C, > 100 µM (inactive); in the assay with SR, > 100 µM (inactive). Moreover, the GI50 in the assay on NCI/ADR-RES, in the assay on LOX IMVI, in the assay on K562, in the assay on SK-OV-3, with CAKI-1 and in the assay with MDA-MB-231 was > 100 µM (inactive) each time. Further, the GI50 with Hs-578T, in the assay with RXF 393, in the assay with U-251 and with HL-60 was > 100 µM (inactive) in each case.
As to `COc1cc([C@@H]2c3cc4c(cc3[C@@H](Nc3ccccc3C(=O)c3ccccc3)[C@H]3COC(=O)[C@H]23)OCO4)cc(OC)c1OC`, the GI50 was 0.535 µM (active) in the assay on ACHN; 0.376 µM (active) with SF-295; 0.381 µM (active) in the assay with RPMI-8226; 0.933 µM (active) with UACC-257; 0.458 µM (active) in the assay with Malme-3M; > 100 µM (inactive) in the assay with SK-MEL-2. Further, the GI50 in the assay with SN12C was 1.9 µM (inactive); in the assay on SR, 0.332 µM (active); in the assay with NCI/ADR-RES, 0.479 µM (active); in the assay with LOX IMVI, 0.313 µM (active); in the assay with K562, 0.35 µM (active); in the assay with SW-620, 0.471 µM (active). In addition, the GI50 with CAKI-1 is 0.741 µM (active); in the assay with MDA-MB-231, 1.81 µM (inactive); in the assay on Hs-578T, 0.373 µM (active); in the assay on RXF 393 it was 0.459 µM (active); in the assay on U-251, 0.362 µM (active); in the assay on HL-60, 0.212 µM (active).
In the case of `Nn1c(SCC(=O)NCc2ccccc2)nc2ccccc2c1=O`, the GI50 with HOP-92 was 34.2 µM (inactive); in the assay with ACHN, 40.6 µM (inactive); with SF-295 it was 48.6 µM (inactive); with RPMI-8226, 40.8 µM (inactive); in the assay on UACC-257 it was 58.2 µM (inactive); in the assay with Malme-3M, 51.2 µM (inactive). The GI50 is 76.7 µM (inactive) in the assay with SK-MEL-2; > 100 µM (inactive) in the assay with SN12C; 21.1 µM (inactive) in the assay with SR; 36.5 µM (inactive) in the assay on NCI/ADR-RES; 49 µM (inactive) in the assay with LOX IMVI; 27.8 µM (inactive) with K562. Besides, the GI50 in the assay with SW-620 is 57 µM (inactive); with CAKI-1 it was 84.1 µM (inactive); in the assay with MDA-MB-231, 57.8 µM (inactive); in the assay on Hs-578T, 57.5 µM (inactive); in the assay with RXF 393, 34.1 µM (inactive); in the assay with U-251 it was 88.9 µM (inactive).
For the compound `O=P(O)(O)c1ccc(-c2ccc(I)cc2)cc1`, the GI50 in the assay with ACHN was > 100 µM (inactive); in the assay with SF-295 it was > 10 µM (inactive); in the assay with RPMI-8226, > 100 µM (inactive); in the assay on UACC-257 it was > 100 µM (inactive); in the assay on Malme-3M, > 100 µM (inactive); in the assay with SK-MEL-2 it was > 100 µM (inactive). Also, the GI50 in the assay on SN12C, in the assay with SR, in the assay with NCI/ADR-RES, in the assay with LOX IMVI, in the assay on K562 and in the assay with SK-OV-3 was > 100 µM (inactive) in each case. Besides, the GI50 in the assay with SW-620 is > 100 µM (inactive); in the assay on CAKI-1 it was > 100 µM (inactive); in the assay with MDA-MB-231, > 100 µM (inactive); in the assay on Hs-578T, > 100 µM (inactive); with RXF 393 it was 13.5 µM (inactive); in the assay with U-251, > 100 µM (inactive). The GI50 in the assay on HL-60 is > 100 µM (inactive).
With `C=CCc1[nH]c2c(OCc3ccccc3)cc(N(CC=C)C(C)=O)cc2c1C`, the GI50 in the assay with HOP-92 is 12.7 µM (inactive); with ACHN, 12.8 µM (inactive); in the assay with SF-295 it was 13 µM (inactive); in the assay with RPMI-8226, 12.1 µM (inactive); in the assay with UACC-257 it was 16 µM (inactive); with Malme-3M it was 16.4 µM (inactive). The GI50 with SK-MEL-2 was 12.4 µM (inactive); in the assay on SN12C, 16 µM (inactive); with NCI/ADR-RES it was 14.3 µM (inactive); in the assay on LOX IMVI, 12.5 µM (inactive); in the assay on K562 it was 10.1 µM (inactive); in the assay with SK-OV-3, 16.4 µM (inactive). Also, the GI50 with SW-620 was 13.9 µM (inactive); in the assay on CAKI-1, 15.5 µM (inactive); with MDA-MB-231 it was 10.7 µM (inactive); in the assay with Hs-578T, 14.2 µM (inactive); with RXF 393, 11.2 µM (inactive); in the assay with U-251 it was 12.8 µM (inactive). Besides, the GI50 in the assay on HL-60 is 12.8 µM (inactive).
For `O=C(Nn1c(-c2ccccc2)nc2ccccc2c1=O)c1ccccn1`, the GI50 in the assay with HOP-92 was 78 µM (inactive); in the assay on ACHN, > 100 µM (inactive); in the assay on SF-295, 98.9 µM (inactive); in the assay with RPMI-8226, > 100 µM (inactive); in the assay on UACC-257 it was > 100 µM (inactive); in the assay on Malme-3M, > 100 µM (inactive). The GI50 in the assay on SN12C is > 100 µM (inactive); in the assay with SR, > 100 µM (inactive); with NCI/ADR-RES, > 100 µM (inactive); in the assay with LOX IMVI it was > 100 µM (inactive); in the assay on K562, 78.5 µM (inactive); with SK-OV-3, > 100 µM (inactive). Moreover, the GI50 is > 100 µM (inactive) with SW-620; > 100 µM (inactive) in the assay on MDA-MB-231; 27.5 µM (inactive) in the assay with Hs-578T; 45.3 µM (inactive) in the assay with RXF 393; 75.7 µM (inactive) in the assay with U-251; 71.4 µM (inactive) in the assay with HL-60.
Regarding `CN(NC(=O)c1ccco1)C1=NCCCCN1`, the GI50 in the assay on HOP-92, with ACHN, in the assay on SF-295, in the assay with RPMI-8226, with UACC-257 and with Malme-3M was > 100 µM (inactive) each time. Also, the GI50 in the assay with SK-MEL-2, in the assay with SN12C, with SR, with NCI/ADR-RES, in the assay on LOX IMVI and with K562 was > 100 µM (inactive) in each case. Further, the GI50 in the assay with SK-OV-3, in the assay on SW-620, in the assay on MDA-MB-231, with Hs-578T, with RXF 393 and in the assay on U-251 was > 100 µM (inactive) throughout. In addition, the GI50 in the assay on HL-60 is > 100 µM (inactive).
On to `CCC[C@H]1C(=O)N=C(N)N1C(=O)OCc1ccccc1`, for which the GI50 in the assay on ACHN, in the assay with SF-295, in the assay on RPMI-8226, with UACC-257, in the assay on Malme-3M and with SK-MEL-2 was > 100 µM (inactive) throughout. The GI50 with SN12C, in the assay with SR, in the assay with NCI/ADR-RES, in the assay on LOX IMVI, with K562 and in the assay with SW-620 was > 100 µM (inactive) each time. Further, the GI50 in the assay with CAKI-1, in the assay on MDA-MB-231, in the assay with Hs-578T, in the assay with RXF 393, in the assay on U-251 and in the assay with HL-60 was > 100 µM (inactive) throughout.

The values are drawn from ChEMBL document CHEMBL1201862, “PubChem BioAssay data set” (2004).
